According to patent US10640507B2, “PBD antibacterial agents” (KING'S COLLEGE LONDON, priority 2015, dated 2020):
Like-named read-outs stand apart in the source and are kept apart here.

How the values were obtained:
Assay type in all cases: cell-based
Details in all cases: drug at 4×MIC
A. baumannii - AYE = tested on: A. baumannii - AYE
Protocol: (§1) 1. Grow bacteria overnight.
(§2) 2. Subculture into an autoclaved conical flask containing 10 ml of TSB to an OD of 0.01 (˜1×10^7 Cfu/ml for KP-M6).
(§3) 4. Take aliquots (100 μl) at timepoints (0, 1, 2, 4, 6, 24 hours) and carry out a serial dilution in PBS (to remove drug and to dilute bacteria to countable numbers).
(§4) 5. Use the serial dilution to perform a Miles Misra—i.e. Add 3×10 μl spots of each dilution onto an agar plate. Incubate overnight and count colonies on spots in the morning.
(§5) 6. Control: Subculture bacteria alongside samples but with no antibiotic added. Take aliquots from this at every time point (0, 1, 2, 4, 6, 24 hours) and perform Miles Misra on these too (as detailed in points 4 and 5 above).
(§6) 7. After the first experiment, if the counts seen on Miles-Misra were zero, total viable counts were determined by spreading 200 μl in a streak down the centre of a TSB agar plate, waiting for the liquid to be absorbed and then spreading over the plate and checking for growth inhibition at the sight of the original streak.
(§7) 8. The compound is considered bactericidal if the inoculum was reduced >3 log10 CFU/ml and bacteriostatic if inoculum was reduced by 0-3 log10 CFU/ml.
(§8) Three measurements were taken for each compound at each time point. These measurements were averaged and the standard deviation was also calculated.

A. baumannii - NCTC13424 = tested on: A. baumannii - NCTC13424
Protocol: as §1, §2, §3, §4, §5, §6, §7, §8

[1] = tested on: K. pneumonia - NCTC 13368
Protocol: as §1, §2, §3, §4, §5, §6, §7, §8

[2] = tested on: K. pneumonia - NCTC 13438
Protocol: as §1, §2, §3, §4, §5, §6, §7, §8

Work on `O=C(O)c1cn(C2CC2)c2cc(N3CCNCC3)c(F)cc2c1=O` [CIP, ciprofloxacin, reference compound] yielded an Average (CFU/ml) (A. baumannii - AYE; time-point 1 hours) of 2e+06 CFU/ml, a n = 1 (CFU/ml) (A. baumannii - AYE; time-point 1 hours) of 2.1e+06 CFU/ml and a n = 2 (CFU/ml) (A. baumannii - AYE; time-point 1 hours) of 1.9e+06 CFU/ml. The Average (CFU/ml) (A. baumannii - AYE; time-point 2 hours) was 900000 CFU/ml, the n = 1 (CFU/ml) (A. baumannii - AYE; time-point 2 hours) was 1.2e+06 CFU/ml and the n = 2 (CFU/ml) (A. baumannii - AYE; time-point 2 hours) was 600000 CFU/ml. For the same compound, the Average (CFU/ml) (A. baumannii - AYE; time-point 4 hours) was 750000 CFU/ml, the n = 1 (CFU/ml) (A. baumannii - AYE; time-point 4 hours) was 800000 CFU/ml and the n = 2 (CFU/ml) (A. baumannii - AYE; time-point 4 hours) was 700000 CFU/ml. The Average (CFU/ml) (A. baumannii - AYE; time-point 6 hours) was 2.1e+06 CFU/ml, the n = 1 (CFU/ml) (A. baumannii - AYE; time-point 6 hours) was 2e+06 CFU/ml and the n = 2 (CFU/ml) (A. baumannii - AYE; time-point 6 hours) was 2.2e+06 CFU/ml. The n = 1 (CFU/ml) (A. baumannii - AYE; time-point 24 hours) was 7e+08 CFU/ml, the n = 2 (CFU/ml) (A. baumannii - AYE; time-point 24 hours) was 1.4e+08 CFU/ml and the Average (CFU/mL) (A. baumannii - NCTC13424; time-point 1 hours) was 2.57e+06 CFU/mL. For the same compound, the n = 1 (CFU/mL) (A. baumannii - NCTC13424; time-point 1 hours) was 2.5e+06 CFU/mL, the n = 2 (CFU/ml) (A. baumannii - NCTC13424; time-point 1 hours) was 2.2e+06 CFU/ml and the n = 3 (CFU/mL) (A. baumannii - NCTC13424; time-point 1 hours) was 3e+06 CFU/mL. The Average (CFU/mL) (A. baumannii - NCTC13424; time-point 2 hours) was 42000 CFU/mL, the n = 1 (CFU/mL) (A. baumannii - NCTC13424; time-point 2 hours) was 80000 CFU/mL and the n = 2 (CFU/ml) (A. baumannii - NCTC13424; time-point 2 hours) was 21000 CFU/ml. For the same compound, the n = 3 (CFU/mL) (A. baumannii - NCTC13424; time-point 2 hours) was 25000 CFU/mL, the Average (CFU/mL) (A. baumannii - NCTC13424; time-point 4 hours) was 7330 CFU/mL and the n = 1 (CFU/mL) (A. baumannii - NCTC13424; time-point 4 hours) was 12000 CFU/mL. For the same compound, the n = 2 (CFU/ml) (A. baumannii - NCTC13424; time-point 4 hours) was 1000 CFU/ml, the n = 3 (CFU/mL) (A. baumannii - NCTC13424; time-point 4 hours) was 9000 CFU/mL and the Average (CFU/mL) (A. baumannii - NCTC13424; time-point 6 hours) was 11200 CFU/mL. The n = 1 (CFU/mL) (A. baumannii - NCTC13424; time-point 6 hours) was 10000 CFU/mL, the n = 2 (CFU/ml) (A. baumannii - NCTC13424; time-point 6 hours) was 14300 CFU/ml and the n = 3 (CFU/mL) (A. baumannii - NCTC13424; time-point 6 hours) was 9200 CFU/mL. It also gave a n = 1 (CFU/mL) (A. baumannii - NCTC13424; time-point 24 hours) of 3.6e+08 CFU/mL, a n = 2 (CFU/ml) (A. baumannii - NCTC13424; time-point 24 hours) of 1.9e+09 CFU/ml and a n = 3 (CFU/mL) (A. baumannii - NCTC13424; time-point 24 hours) of 2.75e+09 CFU/mL. It also gave an Average (CFU/ml) ([1]; time-point 1 hours) of 2.38e+06 CFU/ml, a n = 2 (CFU/ml) ([1]; time-point 1 hours) of 110000 CFU/ml and a n = 3 (CFU/ml) ([1]; time-point 1 hours) of 28000 CFU/ml. The viable count ([1]; time-point 1 hours) was 7e+06 CFU/mL, the Average (CFU/ml) ([1]; time-point 2 hours) was 118000 CFU/ml and the n = 2 (CFU/ml) ([1]; time-point 2 hours) was 650 CFU/ml. For the same compound, the n = 3 (CFU/ml) ([1]; time-point 2 hours) was 2500 CFU/ml, the viable count ([1]; time-point 2 hours) was 350000 CFU/mL and the Average (CFU/ml) ([1]; time-point 4 hours) was 75.3 CFU/ml. For the same compound, the n = 2 (CFU/ml) ([1]; time-point 4 hours) was 55 CFU/ml, the n = 3 (CFU/ml) ([1]; time-point 4 hours) was 170 CFU/ml and the viable count ([1]; time-point 4 hours) was 0 CFU/mL. It also gave an Average (CFU/ml) ([1]; time-point 6 hours) of 65.3 CFU/ml, a n = 2 (CFU/ml) ([1]; time-point 6 hours) of 80 CFU/ml and a n = 3 (CFU/ml) ([1]; time-point 6 hours) of 115 CFU/ml. It also gave a viable count ([1]; time-point 6 hours) of 0 CFU/mL, an Average (CFU/ml) ([1]; time-point 24 hours) of 0 CFU/ml and a n = 2 (CFU/ml) ([1]; time-point 24 hours) of 0 CFU/ml. It also gave a n = 3 (CFU/ml) ([1]; time-point 24 hours) of 0 CFU/ml, a viable count ([1]; time-point 24 hours) of 0 CFU/mL and a n = 1 (CFU/ml) ([2]; time-point 1 hours) of 1e+07 CFU/ml. The n = 2 (CFU/ml) ([2]; time-point 1 hours) was 9e+06 CFU/ml, the n = 1 (CFU/ml) ([2]; time-point 2 hours) was 3.8e+07 CFU/ml and the n = 2 (CFU/ml) ([2]; time-point 2 hours) was 3.7e+07 CFU/ml. The “Average (Log CFU/ml)” value ([2]; time-point 4 hours) was 1.17E+09 Log CFU/ml, the n = 1 (CFU/ml) ([2]; time-point 4 hours) was 1.5e+09 CFU/ml and the n = 2 (CFU/ml) ([2]; time-point 4 hours) was 1e+09 CFU/ml. The “Average (Log CFU/ml)” value ([2]; time-point 6 hours) was 3.07E+09 Log CFU/ml, the n = 1 (CFU/ml) ([2]; time-point 6 hours) was 3.9e+09 CFU/ml and the n = 2 (CFU/ml) ([2]; time-point 6 hours) was 2.5e+09 CFU/ml. For the same compound, the “Average (Log CFU/ml)” value ([2]; time-point 24 hours) was 6.23E+09 Log CFU/ml, the n = 1 (CFU/ml) ([2]; time-point 24 hours) was 6e+09 CFU/ml and the n = 2 (CFU/ml) ([2]; time-point 24 hours) was 6.7e+09 CFU/ml.
